In general, EC50 refers to the concentration that produces a half-maximal response.

The text below walks through data of patent publication US9133158B2, “Bicyclic dihydroisoquinoline-1-one derivatives” (Hoffmann-La Roche Inc., priority 2011, dated 2015).

For one test, the target named is T1, human CYP11B1 (Homo sapiens, UniProt P15538).
T1 construct: expressed in transfected cells
T1 sequence (P15538 25-503): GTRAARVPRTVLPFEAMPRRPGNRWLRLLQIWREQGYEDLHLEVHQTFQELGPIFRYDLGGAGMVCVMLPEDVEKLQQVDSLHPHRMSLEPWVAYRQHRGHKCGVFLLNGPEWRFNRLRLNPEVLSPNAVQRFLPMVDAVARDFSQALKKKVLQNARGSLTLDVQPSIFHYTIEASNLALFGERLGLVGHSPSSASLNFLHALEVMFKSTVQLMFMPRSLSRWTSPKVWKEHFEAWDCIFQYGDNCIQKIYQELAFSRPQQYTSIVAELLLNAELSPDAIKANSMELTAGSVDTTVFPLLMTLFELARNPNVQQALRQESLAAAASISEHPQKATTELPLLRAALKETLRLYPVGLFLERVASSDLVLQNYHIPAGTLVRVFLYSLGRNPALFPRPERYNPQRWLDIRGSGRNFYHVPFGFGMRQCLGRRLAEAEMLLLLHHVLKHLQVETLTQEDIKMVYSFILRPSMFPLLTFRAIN
The test is described as follows: G-402 cellular enzyme assay, human CYP11B1 (cortisol release, HTRF). The format is cell-based. Conditions: G-402 cells, 1 μM Deoxycortisol. In outline: (§1)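 Supernatant steroid product measured by HTRF (aldosterone for CYP11B2, cortisol for CYP11B1) after 16 h exposure of stably transfected G-402 cells to compound. Substrates were 1 μM deoxycorticosterone and 1 μM deoxycortisol, respectively; EC50 derived from a four-parameter MMF curve fit.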

The target of another test is T2, human CYP11B2 (Homo sapiens, UniProt P19099).
T2 construct: expressed in transfected cells
T2 sequence (P19099 25-503): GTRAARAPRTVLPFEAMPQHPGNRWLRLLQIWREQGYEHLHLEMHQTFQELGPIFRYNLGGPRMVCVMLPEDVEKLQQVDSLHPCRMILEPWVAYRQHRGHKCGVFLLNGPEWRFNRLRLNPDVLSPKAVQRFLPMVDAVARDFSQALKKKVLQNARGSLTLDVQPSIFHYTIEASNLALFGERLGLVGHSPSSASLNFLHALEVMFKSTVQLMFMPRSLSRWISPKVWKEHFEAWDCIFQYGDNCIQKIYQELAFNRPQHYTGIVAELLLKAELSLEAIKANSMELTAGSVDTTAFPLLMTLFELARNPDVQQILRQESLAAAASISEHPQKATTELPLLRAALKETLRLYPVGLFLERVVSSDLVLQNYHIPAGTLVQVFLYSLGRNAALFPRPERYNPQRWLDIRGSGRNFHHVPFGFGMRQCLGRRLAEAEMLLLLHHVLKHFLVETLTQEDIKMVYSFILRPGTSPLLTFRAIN
Briefly: G-402 cellular enzyme assay, human CYP11B2 (aldosterone release, HTRF). The format is cell-based. Conditions: G-402 cells, 1 μM Deoxycorticosterone. In outline: as §1
In general terms: In TR-FRET formats the signal depends on donor and acceptor labels being close together.

As to `CS(=O)(=O)NCc1cncc(N2C(=O)c3ccc(F)cc3C23CC3)c1` [Example 404, N-{[5-(6′-Fluoro-3′-oxospiro [cyclopropane-1,1′-isoindol]-2′(3′H)-yl)pyridin-3-yl]methyl} methane-sulfonamide], the EC50 on human CYP11B1 is 5480 nM; at human CYP11B2, 298 nM.

Regarding `CCS(=O)(=O)N1CCN(c2cncc(N3C(=O)c4ccc(Cl)cc4C3(C)C)c2)CC1` [Example 458, 5-Chloro-2-[5-(4-ethanesulfonyl-piperazin-1-yl)-pyridin-3-yl]-3,3-dimethyl-2,3-dihydroisoindol-1-one], the EC50 on human CYP11B1 is 351 nM; at human CYP11B2, 1.7 nM.

Regarding `CC(c1cncc(N2CCc3cc(Cl)ccc3C2=O)c1)N1CCCC1=O` (centres unmarked) [Example 274, 6-Chloro-2-{5-[1-(2-oxo-pyrrolidin-1-yl)-ethyl]-pyridin-3-yl}-3,4-dihydro-2H-isoquinolin-1-one], the results for the EC50 on human CYP11B1 and on human CYP11B2 were 1050 nM and 128 nM, respectively.

Take `CCS(=O)(=O)Nc1cccc2c(N3CCc4cc(Cl)ccc4C3=O)cncc12` [Example 289, Ethanesulfonic acid (6-chloro-1-oxo-3,4-dihydro-1H-[2,4′]biisoquinolinyl-8′-yl)-amide]: the EC50 at human CYP11B1 came to 186 nM; on human CYP11B2, 70.6 nM.

Consider `CS(=O)(=O)NC1CCc2c1cncc2N1Cc2cc(Cl)ccc2C1=O` (single isomer, unassigned) [Example 334, N-[(R or S)-4-(5-Chloro-1-oxo-1,3-dihydro-isoindol-2-yl)-6,7-dihydro-5H-[2]pyrindin-7-yl]-methanesulfonamide], for which the EC50 on human CYP11B1 was 34600 nM; at human CYP11B2, 383 nM.

As to `Cc1nccn1Cc1cncc(N2C(=O)c3ccc(Cl)cc3C2(C)C)c1` [Example 134, 5-Chloro-3,3-dimethyl-2-[5-(2-methyl-imidazol-1-ylmethyl)-pyridin-3-yl]-2,3-dihydro-isoindol-1-one], the concentration for a half-maximal effect (EC50) was found to be 424 nM at human CYP11B1 and 18.6 nM on human CYP11B2.

In the case of `COCc1ccncc1N1CCc2cc(Cl)ccc2C1=O` [Example 69, 6-Chloro-2-(4-methoxymethyl-pyridin-3-yl)-3,4-dihydro-2H-isoquinolin-1-one], the results for the EC50 on human CYP11B1 and at human CYP11B2 were 7540 nM and 154 nM, respectively.

In the case of `CC[C@H]1c2cc(Cl)ccc2C(=O)N1c1cncc2c1CC[C@H]2NC(C)=O` (single isomer, unassigned) [Example 343], the EC50 at human CYP11B1 is 4690 nM; on human CYP11B2, 134 nM.

In the case of `COc1cncc(N2C(=O)c3ccc(Cl)cc3C2C)c1` (centres unmarked) [Example 120, 5-Chloro-2-(5-methoxy-pyridin-3-yl)-3-methyl-2,3-dihydro-isoindol-1-one], the EC50 on human CYP11B1 is 207 nM; at human CYP11B2 it was 24.7 nM.

As for `Cn1cnc(CNc2cncc(N3CCc4cc(Cl)ccc4C3=O)c2)c1` [Example 228, 6-Chloro-2-{5-[(1-methyl-1H-imidazol-4-ylmethyl)-amino]-pyridin-3-yl}-3,4-dihydro-2H-isoquinolin-1-one], the EC50 amounted to 12400 nM at human CYP11B1 and 263 nM on human CYP11B2.

For `CC(C)Oc1cncc(N2CCc3cc(Cl)ccc3C2=O)c1` [Example 11, 6-Chloro-2-(5-isopropoxy-pyridin-3-yl)-3,4-dihydro-2H-isoquinolin-1-one], the EC50 on human CYP11B1 was 257 nM; on human CYP11B2, 12.7 nM.

In the case of `CCC(=O)N[C@@H]1CCCc2c1cncc2N1C(=O)c2ccc(Cl)cc2[C@H]1CC` (single isomer, unassigned) [Example 354, N-[(R or S)-4-((R or S)-5-Chloro-3-ethyl-1-oxo-1,3-dihydro-isoindol-2-yl)-5,6,7,8-tetrahydro-isoquinolin-8-yl]-propionamide], the figures for the EC50 on human CYP11B1 and on human CYP11B2 were 345 nM and 12.2 nM, respectively.

For `NC1(c2cncc(N3CCc4cc(Cl)ccc4C3=O)c2)CC1` [Example 57, 2-[5-(1-Amino-cyclopropyl)-pyridin-3-yl]-6-chloro-3,4-dihydro-2H-isoquinolin-1-one], the EC50 on human CYP11B1 was 8000 nM; on human CYP11B2, 1280 nM.
